Experimental data: patent publication US11738002B2, “Methods of treating neurological and psychiatric disorders” (Sunovion Pharmaceuticals Inc., priority 2020, dated 2023)

Key:
[1] = test system: female Lister hooded rats; details: rat, in vivo
From the text: (§1) Experimentally naïve rats were housed individually in plastic cages containing bedding. Housing rooms were maintained under a 12/12-hour light/dark cycle at controlled ambient temperature and relative humidity. Animals were allowed to acclimate to laboratory conditions before the beginning of experiments and had free access to water. Access to food was restricted to facilitate training and maintenance of operant behavior with the exception of training of female rats in the MDMA drug discrimination study. Experiments were conducted in operant chambers (MED Associates, Inc., St. Albans, Vt., U.S.A.) located within sound-attenuating, ventilated cubicles. Each chamber was equipped with a stimulus light, lever(s) located near a food receptacle which was connected to a food pellet dispenser. Chambers used for reinstatement studies were also equipped with a Sonalert® tone generator.
The training substance was administered 15 minutes before the session. […] The percentage of total responses on the training drug-appropriate lever and response rates were calculated for each rat.

[2] = test system: Female Sprague Dawley Rats; test: withdrawal-induced physical dependence study
Method: Animals were not dosed during the withdrawal phase. Dosing in the morning was staggered such that every animal was observed individually on each day.
Body weights were recorded prior to each dosing session on Day −6 to Day 46 and in the morning during the withdrawal phase. Only body weight recorded prior to the morning dosing session was used for statistical analysis. Food and water intake were measured once daily in the morning from Day −6 to Day 46 just prior to dosing, and in the morning of the withdrawal phase. Body temperatures were measured once daily using a rectal probe from Day −6 to Day 46 just prior to dosing, and, immediately prior to body weight measurement during the withdrawal. A detailed observation checklist was used to record any physical or behavioral signs of pharmacological effect during dosing and of drug dependence in the withdrawal phase. Rats were observed on a workbench in their open topped home cages (in the holding room where they were kept throughout the study) for a 2 min period 1 hr after the morning dose during the baseline and dosing phases and twice daily on Day 46 and during the withdrawal phase. […] For all other endpoints, withdrawal begins on Day 47.

[3] = test system: male SD rats trained to self-administer heroin; test: self-administration (heroin substitution) test; details: Sprague-Dawley, rat, in vivo
From the text: as §1

With `O=C1CC2(CCCC2)CC(=O)N1CCCCN1CCN(c2ncccn2)CC1` [buspirone] the “generalization to MDMA” value [1] was 37.2±20.4% and the “weak partial generalization to the cue elicited by MDMA” value [1] was less than 50%.
With `CN1C(=O)CN=C(c2ccccc2)c2cc(Cl)ccc21` [diazepam] the “weight of the rats vs vehicle at the end of the dosing phase” value ([2]; 10/15/20 mg/kg p.o. b.i.d. on Days 1-5/6-18/19-46) was 5.4% and the “withdrawal signs on cessation of dosing” value ([2]; 10/15/20 mg/kg p.o. b.i.d., 46 days) was “Physical dependence was demonstrated”.
For `CC(=O)Oc1ccc2c3c1O[C@H]1[C@@H](OC(C)=O)C=C[C@H]4[C@@H](C2)N(C)CC[C@@]341` [heroin], the “mean number of infusions, heroin acquisition session” value [3] was 19.0±0.4.
